One test relates to SKNSH nerve cells. Description: Inhibition of calcium flux (IC50Ca2+) on SKNSH nerve cells. To be noted: Homo sapiens, SK-N-SH, concentration which inhibits release of Ca2+ by 50%. In kind it is cell-based. The text has this: (§1) In order for a substance to be recognized as a calcium-channel inhibitor, it must be able to reduce the intracellular calcium concentration or reduce the binding of calcium to intracellular proteins, such as, for example, calmodulin, such as is described in particular by Galizzi, J. P. et al., J. Biol. Chem., 1987, 262 p. 6947; by Y. Okamiya et al., Eur. J. Pharmacol., 1991, 205, p. 49; by J. A. Wagner et al., J. Neurosci., 1988, 8, p. 3354; by H. R. Lee et al., Life Sci., 1984, 35, p. 721; by Schoemaker H. and Lauger S., Eur. J. Pharmacol., 1985, 111, p. 273 or by I. J. Reynolds et al., J. Pharmacol. Exp. Ther., 1986, 237, p. 731.
(§2) The Applicant determined the IC50Ca2+ for inhibition of calcium flux of three compounds according to the invention using the protocol shown in these documents. IC50Ca2+ represents the concentration which inhibits release of Ca^2+ by 50%.
(In general: Calcium assays in cells follow changes in intracellular calcium, usually with a dye or a luminescent sensor.)

Test [1] relates to human striated muscle cells innervated with explants of rat embryo spinal ganglia and spinal cord. Description: Nerve/muscle coculture model, contractions of muscle fibres. In kind it is cell-based. To be noted: earlier demonstration by the Applicant Company, concentration not given. How it is done:
The mixture of compounds of Example 2 was tested on a model of nerve/muscle coculture which makes it possible to recreate a motor arc by innervating human striated muscle cells with explants of rat embryo spinal ganglia and spinal cord.
Human muscle cells, resulting from samples of striated muscles from a healthy donor, are inoculated in wells with a cross section of 1.8 cm^2 (24-well culture dishes). After culturing for 10 days, these cells form a monolayer and fuse. At this stage, spinal cord explants from rat embryos aged 13 days comprising the spinal ganglia are deposited on the culture.
The growth of the neurites is visible outside the spinal cord explant after culturing for one day. The first contractions of the muscle fibres are observed after coculturing for 5 to 6 days and, after 3 weeks, all the muscle fibres in the vicinity of the explants are contracting.
The cocultures are used after 21 days, when the muscle fibres are striated and have mature differentiated neuromuscular junctions.
A muscle fibre having regular contractions (at least 60 contractions per minute) is then selected from three different culture wells and the number of contractions is counted over 30 seconds. […] At the end of incubation, the number of contractions is again counted over 30 seconds. […]

A short description of test [2]: Antiwrinkle activity in vivo. The settings on record: earlier demonstration, no details.
For test [3], the system named is cells resulting from HFDa skin fibroblasts. Description: Inhibition of calcium flux (IC50Ca2+) on cells from HFDa skin fibroblasts. In kind it is cell-based. The settings on record: Skin fibroblast, concentration which inhibits release of Ca2+ by 50%.
From the text: as §1, §2

Test [4] has as its system Ca2+ channel (L, verapamil site). Nature of the test: Competitive inhibition of [3H]-(-)-D888 binding to L-type calcium channels, rat cerebral cortex homogenates. The settings on record: 1 μM in DMSO; [3H]-(-)-D888 0.5 nM; 60 min/22° C. From the text:
The experimental conditions are as follows:
D888, which is [^3H]-(−)-desmethoxyverapamil, acts as radiolabelled specific ligand and D600, which is (±)-methoxyverapamil hydrochloride, acts as reference molecule.
The specific binding of a ligand (labelled D888) to the receptors (L-type calcium channels, verapamil site) is defined as the difference between the total binding and the non-specific binding determined in the presence of an excess of cold (nonradioactive) ligand. The results are expressed as percentage of inhibition of the specific binding of the control in the presence of the compound tested.

From patent US20080287537A1, “Composition, Particularly a Cosmetic Composition, Comprising ((Dialkylamino)Alkoxy) Ethanol Ester” (L'OREAL, priority 2004, published 2008) come the findings set out here.

One may read the IC50 as the concentration at which inhibition is half-maximal. `CCCCCCCCCC(=O)OCCOCCN(CC)CC` [((Diethylamino)ethoxy)ethyl decanoate]: the IC50 in the test on SKNSH nerve cells turned out to be 26 µM.

With `CN1C(=O)CN=C(c2ccccc2)c2cc(Cl)ccc21` [diazepam], the “contractions of the muscle fibres” value in test [1] is given as “inhibited the contractions of the muscle fibres”. Also, in test [2], the antiwrinkle activity result is “demonstrated in vivo”.

On to `CCCCCCCCCCCCCCCCCC(=O)OCCOCCN(CC)CC` [((Diethylamino)ethoxy)ethyl stearate], for which the IC50 in the test with SKNSH nerve cells came to 37 µM.

Turning to `CCCCCCCCCCCC(=O)OCCOCCN(CC)CC` [((Diethylamino)ethoxy)ethyl laurate, ((diethylamino)ethoxy)ethyl laurate], the half-maximal inhibitory concentration (IC50) in test [3] stood at 13 µM; in the test with SKNSH nerve cells, 11 µM. In addition, in test [4], the “percentage of inhibition of the specific binding of the control” value is on record as 31%.

Turning to `CCCCCCCCCCCCCCCC(=O)OCCOCCN(CC)CC` [((Diethylamino)ethoxy)ethyl palmitate], the IC50 in test [3] amounted to 14 µM; in the test with SKNSH nerve cells, 24 µM.
